Laboratory results as given in patent US20250230193A1, “CYCLIC COMPOUND HAVING SELECTIVE KRAS INHIBITORY EFFECT ON HRAS AND NRAS” (CHUGAI SEIYAKU KABUSHIKI KAISHA, priority 2022, published 2025).

Experiments:
[1] = target: GDP-bound NRAS wild-type protein (Homo sapiens, UniProt P01111); assay: Binding to NRAS by surface plasmon resonance (SPR), Single Cycle Kinetics; conditions: SPR, GDP-bound NRAS wild-type vs GDP-bound KRAS wild-type
[2] = target: GDP-bound HRAS wild-type protein (Homo sapiens, UniProt P01112); assay: Binding to HRAS by surface plasmon resonance (SPR), Single Cycle Kinetics; conditions: SPR, GDP-bound HRAS wild-type vs GDP-bound KRAS wild-type
Chain of GDP-bound HRAS wild-type protein (P01112 whole entry): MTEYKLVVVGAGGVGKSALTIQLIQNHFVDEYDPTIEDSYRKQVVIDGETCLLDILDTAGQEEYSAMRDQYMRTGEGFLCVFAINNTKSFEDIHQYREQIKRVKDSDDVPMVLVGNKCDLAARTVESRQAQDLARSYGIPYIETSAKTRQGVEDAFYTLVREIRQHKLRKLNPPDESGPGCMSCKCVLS

Chain of GDP-bound NRAS wild-type protein (P01111 whole entry): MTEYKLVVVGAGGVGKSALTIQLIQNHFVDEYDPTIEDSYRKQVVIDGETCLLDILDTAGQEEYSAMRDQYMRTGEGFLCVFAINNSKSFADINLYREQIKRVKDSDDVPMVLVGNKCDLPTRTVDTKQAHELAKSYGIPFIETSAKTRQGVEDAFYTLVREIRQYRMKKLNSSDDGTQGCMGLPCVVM

CCOC[C@H]1C(=O)N[C@@H]([C@@H](C)CC)C(=O)N(C)CC(=O)N(C)[C@H]2C/C=C\CCN(C2=O)[C@@H](CC2CCCCC2)C(=O)N(C)CC(=O)N[C@@H](CCc2ccc(C(F)(F)F)c(OC)c2)C(=O)N2C[C@H](OCC)C[C@H]2C(=O)NC2(CC(C)(C)C2)C(=O)N(C)[C@@H](C(CC)CC)C(=O)N(C)[C@H](C(=O)N(C)C)CC(=O)N1C [PP2470]
NRAS/KRAS (ratio of KD value with respect to NRAS to KD value with respect to KRAS) [1]: A (a compound having 10 or more and less than 20 is denoted as A) | HRAS/KRAS (ratio of KD value with respect to HRAS to KD value with respect to KRAS) [2]: A (a compound having 10 or more and less than 20 is denoted as A)

CCCOC[C@H]1C(=O)N[C@@H]([C@@H](C)CC)C(=O)N(C)CC(=O)N(C)[C@H]2C/C=C\CCN(C2=O)[C@@H](Cc2ccc(C)cc2)C(=O)N(C)CC(=O)N[C@@H](CCc2cc(F)c(C(F)(F)F)c(F)c2)C(=O)N2C[C@@H](C)C[C@H]2C(=O)NC2(CC(C)(C)C2)C(=O)N(C)[C@@H](C2CCCC2)C(=O)N(C)[C@H](C(=O)N(C)CC)CC(=O)N1C [PP2471]
NRAS/KRAS (ratio of KD value with respect to NRAS to KD value with respect to KRAS) [1]: A (a compound having 10 or more and less than 20 is denoted as A) | HRAS/KRAS (ratio of KD value with respect to HRAS to KD value with respect to KRAS) [2]: A (a compound having 10 or more and less than 20 is denoted as A)

CCCOC[C@H]1C(=O)N[C@@H]([C@@H](C)CC)C(=O)N(C)CC(=O)N(C)[C@H]2C/C=C\CCN(C2=O)[C@@H](CC2CCC(F)(F)CC2)C(=O)N(C)CC(=O)N[C@@H](CCc2cc(F)c(C(F)(F)F)c(F)c2)C(=O)N2C[C@H](OCC)C[C@H]2C(=O)NC2(CC(C)(C)C2)C(=O)N(C)[C@@H](C(CC)CC)C(=O)N(C)[C@H](C(=O)N(C)C)CC(=O)N1C [PP2472]
NRAS/KRAS (ratio of KD value with respect to NRAS to KD value with respect to KRAS) [1]: A (a compound having 10 or more and less than 20 is denoted as A) | HRAS/KRAS (ratio of KD value with respect to HRAS to KD value with respect to KRAS) [2]: A (a compound having 10 or more and less than 20 is denoted as A)

CCOC[C@H]1C(=O)N[C@@H]([C@@H](C)CC)C(=O)N(C)CC(=O)N(C)[C@H]2C/C=C\CCN(C2=O)[C@@H](CC2CCC(F)(F)CC2)C(=O)N(C)CC(=O)N[C@@H](CCc2ccc(C(F)(F)F)c(Cl)c2)C(=O)N2C[C@@H](C)C[C@H]2C(=O)NC2(CC(C)(C)C2)C(=O)N(C)[C@@H](C(CC)CC)C(=O)N(C)[C@H](C(=O)N(C)C)CC(=O)N1C [PP2475]
NRAS/KRAS (ratio of KD value with respect to NRAS to KD value with respect to KRAS) [1]: AA (a compound having 20 or more is denoted as AA) | HRAS/KRAS (ratio of KD value with respect to HRAS to KD value with respect to KRAS) [2]: A (a compound having 10 or more and less than 20 is denoted as A)

CCO[C@@H]1C[C@H]2C(=O)NC3(CC(C)(C)C3)C(=O)N(C)[C@@H](C(CC)CC)C(=O)N(C)[C@H](C(=O)N(C)C)CC(=O)N(C)[C@@H](C(C)C)C(=O)N[C@@H]([C@@H](C)CC)C(=O)N(C)CC(=O)N(C)[C@H]3C/C=C\CCN(C3=O)[C@@H](CC3CCC(F)(F)CC3)C(=O)N(C)CC(=O)N[C@@H](CCc3ccc(C(F)(F)F)c(OC)c3)C(=O)N2C1 [PP2477]
NRAS/KRAS (ratio of KD value with respect to NRAS to KD value with respect to KRAS) [1]: A (a compound having 10 or more and less than 20 is denoted as A) | HRAS/KRAS (ratio of KD value with respect to HRAS to KD value with respect to KRAS) [2]: A (a compound having 10 or more and less than 20 is denoted as A)

CCOC[C@H]1C(=O)N[C@@H]([C@@H](C)CC)C(=O)N(C)CC(=O)N(C)[C@H]2C/C=C\CCN(C2=O)[C@@H](CC2CCCCC2)C(=O)N(C)CC(=O)N[C@@H](CCc2cc(F)c(C(F)(F)F)c(F)c2)C(=O)N2C[C@H](OCC)C[C@H]2C(=O)NC2(CC(C)(C)C2)C(=O)N(C)[C@@H](C(CC)CC)C(=O)N(C)[C@H](C(=O)N(C)C)CC(=O)N1C [PP2479]
NRAS/KRAS (ratio of KD value with respect to NRAS to KD value with respect to KRAS) [1]: AA (a compound having 20 or more is denoted as AA) | HRAS/KRAS (ratio of KD value with respect to HRAS to KD value with respect to KRAS) [2]: A (a compound having 10 or more and less than 20 is denoted as A)

CCO[C@@H]1C[C@H]2C(=O)NC3(CC(C)(C)C3)C(=O)N(C)[C@@H](C(CC)CC)C(=O)N(C)[C@H](C(=O)N(C)C)CC(=O)N(C)[C@@H](CC3CC3)C(=O)N[C@@H]([C@@H](C)CC)C(=O)N(C)CC(=O)N(C)[C@H]3C/C=C\CCN(C3=O)[C@@H](CC3CCC(F)(F)CC3)C(=O)N(C)CC(=O)N[C@@H](CCc3ccc(C(F)(F)F)c(OC)c3)C(=O)N2C1 [PP2480]
NRAS/KRAS (ratio of KD value with respect to NRAS to KD value with respect to KRAS) [1]: A (a compound having 10 or more and less than 20 is denoted as A) | HRAS/KRAS (ratio of KD value with respect to HRAS to KD value with respect to KRAS) [2]: A (a compound having 10 or more and less than 20 is denoted as A)

CCO[C@@H]1C[C@H]2C(=O)NC3(CC(C)(C)C3)C(=O)N(C)[C@@H](C(CC)CC)C(=O)N(C)[C@H](C(=O)N(C)C)CC(=O)N(C)[C@@H](C(C)C)C(=O)N[C@@H]([C@@H](C)CC)C(=O)N(C)CC(=O)N(C)[C@H]3C/C=C\CCN(C3=O)[C@@H](CC3CCC(F)(F)CC3)C(=O)N(C)CC(=O)N[C@@H](CCc3cc(F)c(C(F)(F)F)c(F)c3)C(=O)N2C1 [PP2481]
NRAS/KRAS (ratio of KD value with respect to NRAS to KD value with respect to KRAS) [1]: A (a compound having 10 or more and less than 20 is denoted as A) | HRAS/KRAS (ratio of KD value with respect to HRAS to KD value with respect to KRAS) [2]: A (a compound having 10 or more and less than 20 is denoted as A)

CCC[C@H]1C(=O)N[C@@H]([C@@H](C)CC)C(=O)N(C)CC(=O)N(C)[C@H]2C/C=C\CCN(C2=O)[C@@H](CC2CCC(F)(F)CC2)C(=O)N(C)CC(=O)N[C@@H](CCc2ccc(C(F)(F)F)c(OC)c2)C(=O)N2C[C@H](OCC)C[C@H]2C(=O)NC2(CC(C)(C)C2)C(=O)N(C)[C@@H](C(CC)CC)C(=O)N(C)[C@H](C(=O)N(C)C)CC(=O)N1C [PP2482]
NRAS/KRAS (ratio of KD value with respect to NRAS to KD value with respect to KRAS) [1]: A (a compound having 10 or more and less than 20 is denoted as A) | HRAS/KRAS (ratio of KD value with respect to HRAS to KD value with respect to KRAS) [2]: A (a compound having 10 or more and less than 20 is denoted as A)

CCCOC[C@H]1C(=O)N[C@@H]([C@@H](C)CC)C(=O)N(C)CC(=O)N(C)[C@H]2C/C=C\CCN(C2=O)[C@@H](CC2CCC(F)(F)CC2)C(=O)N(C)CC(=O)N[C@@H](CCc2ccc(C(F)(F)F)c(OC)c2)C(=O)N2C[C@@H](C)C[C@H]2C(=O)NC2(CC(C)(C)C2)C(=O)N(C)[C@@H](C(CC)CC)C(=O)N(C)[C@H](C(=O)N(C)C)CC(=O)N1C [PP2483]
NRAS/KRAS (ratio of KD value with respect to NRAS to KD value with respect to KRAS) [1]: A (a compound having 10 or more and less than 20 is denoted as A) | HRAS/KRAS (ratio of KD value with respect to HRAS to KD value with respect to KRAS) [2]: A (a compound having 10 or more and less than 20 is denoted as A)

CCCOC[C@H]1C(=O)N[C@@H]([C@@H](C)CC)C(=O)N(C)CC(=O)N(C)[C@H]2C/C=C\CCN(C2=O)[C@@H](CC2CCC(F)(F)CC2)C(=O)N(C)CC(=O)N[C@@H](CCc2ccc(C(F)(F)F)c(Cl)c2)C(=O)N2C[C@H](OCC)C[C@H]2C(=O)NC2(CC(C)(C)C2)C(=O)N(C)[C@@H](C(CC)CC)C(=O)N(C)[C@H](C(=O)N(C)C)CC(=O)N1C [PP2484]
NRAS/KRAS (ratio of KD value with respect to NRAS to KD value with respect to KRAS) [1]: A (a compound having 10 or more and less than 20 is denoted as A) | HRAS/KRAS (ratio of KD value with respect to HRAS to KD value with respect to KRAS) [2]: A (a compound having 10 or more and less than 20 is denoted as A)

CCO[C@@H]1C[C@H]2C(=O)NC3(CC(C)(C)C3)C(=O)N(C)[C@@H](C(CC)CC)C(=O)N(C)[C@H](C(=O)N(C)C)CC(=O)N(C)[C@@H](CC3CC3)C(=O)N[C@@H]([C@@H](C)CC)C(=O)N(C)CC(=O)N(C)[C@H]3C/C=C\CCN(C3=O)[C@@H](CC3CCC(F)(F)CC3)C(=O)N(C)CC(=O)N[C@@H](CCc3cc(F)c(C(F)(F)F)c(F)c3)C(=O)N2C1 [PP2485]
NRAS/KRAS (ratio of KD value with respect to NRAS to KD value with respect to KRAS) [1]: A (a compound having 10 or more and less than 20 is denoted as A) | HRAS/KRAS (ratio of KD value with respect to HRAS to KD value with respect to KRAS) [2]: A (a compound having 10 or more and less than 20 is denoted as A)

CCOC[C@H]1C(=O)N[C@@H]([C@@H](C)CC)C(=O)N(C)CC(=O)N(C)[C@H]2C/C=C\CCN(C2=O)[C@@H](CC2CCCCC2)C(=O)N(C)CC(=O)N[C@@H](CCc2ccc(C(F)(F)F)c(Cl)c2)C(=O)N2C[C@H](OCC)C[C@H]2C(=O)NC2(CC(C)(C)C2)C(=O)N(C)[C@@H](C(CC)CC)C(=O)N(C)[C@H](C(=O)N(C)C)CC(=O)N1C [PP2488]
NRAS/KRAS (ratio of KD value with respect to NRAS to KD value with respect to KRAS) [1]: A (a compound having 10 or more and less than 20 is denoted as A) | HRAS/KRAS (ratio of KD value with respect to HRAS to KD value with respect to KRAS) [2]: A (a compound having 10 or more and less than 20 is denoted as A)

CCC[C@H]1C(=O)N[C@@H]([C@@H](C)CC)C(=O)N(C)CC(=O)N(C)[C@H]2C/C=C\CCN(C2=O)[C@@H](CC2CCC(F)(F)CC2)C(=O)N(C)CC(=O)N[C@@H](CCc2cc(F)c(C(F)(F)F)c(F)c2)C(=O)N2C[C@H](OCC)C[C@H]2C(=O)NC2(CC(C)(C)C2)C(=O)N(C)[C@@H](C(CC)CC)C(=O)N(C)[C@H](C(=O)N(C)C)CC(=O)N1C [PP2489]
NRAS/KRAS (ratio of KD value with respect to NRAS to KD value with respect to KRAS) [1]: A (a compound having 10 or more and less than 20 is denoted as A) | HRAS/KRAS (ratio of KD value with respect to HRAS to KD value with respect to KRAS) [2]: A (a compound having 10 or more and less than 20 is denoted as A)

CCCOC[C@H]1C(=O)N[C@@H]([C@@H](C)CC)C(=O)N(C)CC(=O)N(C)[C@H]2C/C=C\CCN(C2=O)[C@@H](CC2CCC(F)(F)CC2)C(=O)N(C)CC(=O)N[C@@H](CCc2cc(F)c(C(F)(F)F)c(F)c2)C(=O)N2C[C@@H](C)C[C@H]2C(=O)NC2(CC(C)(C)C2)C(=O)N(C)[C@@H](C(CC)CC)C(=O)N(C)[C@H](C(=O)N(C)C)CC(=O)N1C [PP2490]
NRAS/KRAS (ratio of KD value with respect to NRAS to KD value with respect to KRAS) [1]: AA (a compound having 20 or more is denoted as AA) | HRAS/KRAS (ratio of KD value with respect to HRAS to KD value with respect to KRAS) [2]: A (a compound having 10 or more and less than 20 is denoted as A)
